IC50 data for 28 compounds are collected here from patent US20240190855A1 (Relay Therapeutics, Inc., priority 2021, published 2024).

Molecules are shown by their SMILES.

For the assay, the target named is T1, CDK2/Cyclin E complex (Homo sapiens, UniProt P24941).
T1 construct: purchased Eurofins 14-475
The assay can be described thus: CDK2/Cyclin E fluorescence-based microfluidic mobility shift assay (CDK2 Biochemical Caliper Assay). Conditions: read-out: Biochemical CDK2/CyclinE Caliper IC50. The procedure, abridged:
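Microfluidic mobility-shift readout after EDTA termination measured phosphorylation of fluorescent FL Peptide 18 (1.5 uM final) in a 20 hr room-temperature reaction. Compounds were tested at 11 concentrations (3-fold).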
For the compound `COCc1cc(C(=O)Nc2cc(-c3csc4cncnc34)[nH]n2)n(C)n1` [Example 242], the IC50 lay in the range of 1000 to 100000 nM.

For `Cc1cc(CC(=O)Nc2cc(C34CCC(CC3)C4)[nH]n2)on1` [Example 244], the IC50 lay in the range of 1000 to 100000 nM. Turning to `c1cnc(Nc2cc(C34CCC(CC3)C4)[nH]n2)nc1` [Example 314], the IC50 was 1000 to 100000 nM. On to `Cc1cc(CC(=O)Nc2cc(-c3csc4cnc(NC(C)C)nc34)[nH]n2)on1` [Example 336], for which the IC50 fell in the range of 250 to 1000 nM. To `COCc1cc(C(=O)Nc2cc(-c3csc4cnc(NC(C)C)nc34)[nH]n2)n(C)n1` [Example 337] belongs 1000 to 100000 nM. Turning to `Cc1cc(CC(=O)Nc2cc([C@H]3C[C@@H](CC(=O)NC(C)C)C3)[nH]n2)on1` [Example 347], the IC50 lay within 1000 to 100000 nM. In the case of `Cc1cc(CC(=O)Nc2cc([C@H]3C[C@H](CC(=O)NC(C)C)C3)[nH]n2)on1` [Example 348], the IC50 lay within 1000 to 100000 nM. On to `COCc1cc(C(=O)Nc2cc([C@H]3C[C@@H](CC(=O)NC(C)C)C3)[nH]n2)n(C)n1` [Example 360], for which the IC50 is 1000 to 100000 nM. For `COCc1cc(C(=O)Nc2cc([C@H]3C[C@H](CC(=O)NC(C)C)C3)[nH]n2)n(C)n1` [Example 361], the IC50 was in the range of 1000 to 100000 nM. Take `Cc1cc(CC(=O)Nc2cc([C@H]3C[C@@H](COc4nscc4C4CC4)C3)[nH]n2)on1` [Example 368]: the IC50 is no more than 100 nM. For `Cc1cc(CC(=O)Nc2cc([C@H]3C[C@H](COc4nscc4C4CC4)C3)[nH]n2)on1` [Example 369], the IC50 fell in the range of 1000 to 100000 nM. Regarding `Cc1ccc(O[C@@H]2CC[C@H](c3cc(NC(=O)Cc4cc(C)no4)n[nH]3)C2)nn1` [Example 397], the IC50 fell in the range of 250 to 1000 nM.

As for `Cc1cc(CC(=O)Nc2cc([C@H]3C[C@@H](Oc4nnccc4C(C)C)CO3)[nH]n2)on1` [Example 406], the IC50 is no more than 100 nM. For the compound `Cc1cc(CC(=O)Nc2cc([C@@H]3C[C@H](Oc4nnccc4C(C)C)CO3)[nH]n2)on1` [Example 407], the IC50 is no more than 100 nM. As to `CC(C)c1ccnnc1O[C@H]1CC[C@@H](c2cc(Nc3nccc4ncsc34)n[nH]2)CC1` [Example 412], the IC50 is no more than 100 nM. For `Cc1cc(CC(=O)Nc2cc(C3CCCN3)[nH]n2)on1` (stereo not shown) [Example 416], the IC50 was in the range of 1000 to 100000 nM. As to `CC(C)NC(=O)O[C@@H]1CC[C@H](c2cc(Nc3ncnc4ncsc34)n[nH]2)C1` [Example 425], the IC50 is no more than 100 nM. Consider `CC(C)NC(=O)O[C@H]1CC[C@@H](c2cc(Nc3ncnc4ncsc34)n[nH]2)C1` [Example 426], for which the IC50 is no more than 100 nM. As to `COCc1cc(C(=O)Nc2cc([C@H]3C[C@@H](COc4nnccc4C(C)C)C3)[nH]n2)n(C)n1` [Example 429], the IC50 was no more than 100 nM. Regarding `COCc1cc(C(=O)Nc2cc([C@H]3C[C@H](COc4nnccc4C(C)C)C3)[nH]n2)n(C)n1` [Example 430], the IC50 lay in the range of 1000 to 100000 nM. Take `Cc1cc(CC(=O)Nc2cc([C@H]3C[C@@H](COc4nnccc4C(C)C)C3)[nH]n2)on1` [Example 431]: the IC50 is no more than 100 nM. In the case of `Cc1cc(CC(=O)Nc2cc([C@H]3C[C@H](COc4nnccc4C(C)C)C3)[nH]n2)on1` [Example 432], the IC50 lay within 100 to 250 nM.

With `CC(C)NC(=O)O[C@H]1CO[C@@H](c2cc(Nc3nccc4ncsc34)n[nH]2)C1` [Example 433], the IC50 is no more than 100 nM. Take `CC(C)NC(=O)O[C@@H]1CO[C@H](c2cc(Nc3nccc4ncsc34)n[nH]2)C1` [Example 434]: the IC50 was in the range of 100 to 250 nM.

`CC(C)c1ccnnc1O[C@H]1C[C@@H](c2cc(Nc3nccc4ncsc34)n[nH]2)C1` [Example 435]: the IC50 was no more than 100 nM. Regarding `CC(C)c1ccnnc1O[C@@H]1CC[C@H](c2cc(Nc3nccc4ncsc34)n[nH]2)C1` [Example 436], the IC50 was no more than 100 nM.

As to `CC(C)c1ccnnc1O[C@H]1CC[C@@H](c2cc(Nc3nccc4ncsc34)n[nH]2)C1` [Example 437], the IC50 is no more than 100 nM. On to `CC(C)c1ccnnc1OC[C@H]1C[C@@H](c2cc(Nc3nccc4ncsc34)n[nH]2)C1` [Example 438], for which the IC50 is no more than 100 nM.
